{"source": "PubChem BioAssay AID250", "about": "(DTP/NCI, 2004)", "tested_on": "BDF1 mice, L1210 leukemia sc, survival T/C", "test": "NCI In Vivo Anticancer Drug Screen. Data for tumor model L1210 Leukemia (subcutaneous) in B6D2F1 (BDF1) mice", "conditions": "endpoint: median survival time, higher = longer survival", "method_in_brief": "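Antitumor activity is assessed in mice with transplanted tumors by comparing the treated group (T) with the vehicle control group (C).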", "note": "Values joined by “and” are separate entries in the source; they are usually repeats but may differ in a detail not shown here. Identical values can stand only once. Toxic doses and inconclusive results are not listed."}
{"smiles": "CC(CN1CC(=O)NC(=O)C1)N1CC(=O)NC(=O)C1", "note": "(stereo unspecified)", "values": [{"measurement": "T/C", "setting": "dose: 3.12 mg/kg/injection, schedule: Q03HX024 (ip), vehicle: other", "result": "115 % of control"}, {"measurement": "T/C", "setting": "dose: 3.12 mg/kg/injection, schedule: Q03HX024 (ip), vehicle: steriod suspending solution", "result": "111 % of control"}, {"measurement": "T/C", "setting": "dose: 6.25 mg/kg/injection, schedule: Q03HX024 (ip), vehicle: other", "result": "156 % of control"}, {"measurement": "T/C", "setting": "dose: 6.25 mg/kg/injection, schedule: Q03HX024 (ip), vehicle: steriod suspending solution", "result": "155 % of control"}, {"measurement": "T/C", "setting": "dose: 8.4 mg/kg/injection, schedule: Q03HX024 (sc), vehicle: Klucel (hydroxypropylcellulose) (HPC)", "result": "150 % of control"}, {"measurement": "T/C", "setting": "dose: 10.0 mg/kg/injection, schedule: Q03HX024 (sc), vehicle: Klucel (hydroxypropylcellulose) (HPC)", "result": "184 % of control and 185 % of control"}, {"measurement": "T/C", "setting": "dose: 12.5 mg/kg/injection, schedule: Q01DX009 (sc), vehicle: steriod suspending solution", "result": "105 % of control"}, {"measurement": "T/C", "setting": "dose: 12.5 mg/kg/injection, schedule: Q03HX024 (ip), vehicle: other", "result": "191 % of control"}, {"measurement": "T/C", "setting": "dose: 12.5 mg/kg/injection, schedule: Q03HX024 (ip), vehicle: steriod suspending solution", "result": "161 % of control"}, {"measurement": "T/C", "setting": "dose: 14.0 mg/kg/injection, schedule: Q03HX024 (sc), vehicle: Klucel (hydroxypropylcellulose) (HPC)", "result": "180 % of control"}, {"measurement": "T/C", "setting": "dose: 16.0 mg/kg/injection, schedule: Q01DX009 (ip), vehicle: Klucel (hydroxypropylcellulose) (HPC)", "result": "109 % of control and 124 % of control"}, {"measurement": "T/C", "setting": "dose: 16.0 mg/kg/injection, schedule: Q01DX009 (ip), vehicle: other", "result": "119 % of control"}, {"measurement": "T/C", "setting": "dose: 20.0 mg/kg/injection, schedule: Q03HX024 (sc), vehicle: Klucel (hydroxypropylcellulose) (HPC)", "result": "194 % of control and 195 % of control"}, {"measurement": "T/C", "setting": "dose: 23.0 mg/kg/injection, schedule: Q03HX024 (sc), vehicle: Klucel (hydroxypropylcellulose) (HPC)", "result": "200 % of control"}, {"measurement": "T/C", "setting": "dose: 25.0 mg/kg/injection, schedule: Q01DX009 (sc), vehicle: steriod suspending solution", "result": "120 % of control"}, {"measurement": "T/C", "setting": "dose: 25.0 mg/kg/injection, schedule: Q03HX024 (ip), vehicle: other", "result": "160 % of control"}, {"measurement": "T/C", "setting": "dose: 25.0 mg/kg/injection, schedule: Q03HX024 (ip), vehicle: steriod suspending solution", "result": "155 % of control"}, {"measurement": "T/C", "setting": "dose: 39.0 mg/kg/injection, schedule: Q03HX024 (sc), vehicle: Klucel (hydroxypropylcellulose) (HPC)", "result": "205 % of control"}, {"measurement": "T/C", "setting": "dose: 40.0 mg/kg/injection, schedule: Q03HX024 (sc), vehicle: Klucel (hydroxypropylcellulose) (HPC)", "result": "199 % of control and 200 % of control"}, {"measurement": "T/C", "setting": "dose: 50.0 mg/kg/injection, schedule: Q01DX009 (ip), vehicle: steriod suspending solution", "result": "150 % of control"}, {"measurement": "T/C", "setting": "dose: 50.0 mg/kg/injection, schedule: Q01DX009 (sc), vehicle: steriod suspending solution", "result": "155 % of control"}, {"measurement": "T/C", "setting": "dose: 50.0 mg/kg/injection, schedule: Q04DX003 (sc), vehicle: Klucel (hydroxypropylcellulose) (HPC)", "result": "110 % of control and 112 % of control"}, {"measurement": "T/C", "setting": "dose: 64.0 mg/kg/injection, schedule: Q01DX009 (ip), vehicle: Klucel (hydroxypropylcellulose) (HPC)", "result": "154 % of control"}, {"measurement": "T/C", "setting": "dose: 65.0 mg/kg/injection, schedule: Q01DX009 (sc), vehicle: Klucel (hydroxypropylcellulose) (HPC)", "result": "170 % of control"}, {"measurement": "T/C", "setting": "dose: 65.0 mg/kg/injection, schedule: Q03HX024 (sc), vehicle: Klucel (hydroxypropylcellulose) (HPC)", "result": "205 % of control"}, {"measurement": "T/C", "setting": "dose: 80.0 mg/kg/injection, schedule: Q03HX024 (sc), vehicle: Klucel (hydroxypropylcellulose) (HPC)", "result": "118 % of control and 120 % of control"}, {"measurement": "T/C", "setting": "dose: 100.0 mg/kg/injection, schedule: Q01DX009 (ip), vehicle: steriod suspending solution", "result": "110 % of control"}, {"measurement": "T/C", "setting": "dose: 100.0 mg/kg/injection, schedule: Q01DX009 (sc), vehicle: steriod suspending solution", "result": "150 % of control and 175 % of control"}, {"measurement": "T/C", "setting": "dose: 100.0 mg/kg/injection, schedule: Q04DX003 (ip), vehicle: other", "result": "117 % of control"}, {"measurement": "T/C", "setting": "dose: 100.0 mg/kg/injection, schedule: Q04DX003 (ip), vehicle: steriod suspending solution", "result": "120 % of control"}, {"measurement": "T/C", "setting": "dose: 100.0 mg/kg/injection, schedule: Q04DX003 (sc), vehicle: steriod suspending solution", "result": "100 % of control and 120 % of control"}, {"measurement": "T/C", "setting": "dose: 108.0 mg/kg/injection, schedule: Q01DX009 (sc), vehicle: Klucel (hydroxypropylcellulose) (HPC)", "result": "160 % of control"}, {"measurement": "T/C", "setting": "dose: 108.0 mg/kg/injection, schedule: Q04DX003 (sc), vehicle: Klucel (hydroxypropylcellulose) (HPC)", "result": "118 % of control and 122 % of control"}, {"measurement": "T/C", "setting": "dose: 200.0 mg/kg/injection, schedule: Q01DX009 (ip), vehicle: steriod suspending solution", "result": "90 % of control"}, {"measurement": "T/C", "setting": "dose: 200.0 mg/kg/injection, schedule: Q01DX009 (sc), vehicle: steriod suspending solution", "result": "90 % of control"}, {"measurement": "T/C", "setting": "dose: 200.0 mg/kg/injection, schedule: Q04DX003 (ip), vehicle: Klucel (hydroxypropylcellulose) (HPC)", "result": "150 % of control"}, {"measurement": "T/C", "setting": "dose: 200.0 mg/kg/injection, schedule: Q04DX003 (ip), vehicle: other", "result": "175 % of control"}, {"measurement": "T/C", "setting": "dose: 200.0 mg/kg/injection, schedule: Q04DX003 (ip), vehicle: steriod suspending solution", "result": "150 % of control and 175 % of control"}, {"measurement": "T/C", "setting": "dose: 200.0 mg/kg/injection, schedule: Q04DX003 (sc), vehicle: steriod suspending solution", "result": "100 % of control"}, {"measurement": "T/C", "setting": "dose: 256.0 mg/kg/injection, schedule: Q01DX009 (ip), vehicle: Klucel (hydroxypropylcellulose) (HPC)", "result": "116 % of control and 121 % of control"}, {"measurement": "T/C", "setting": "dose: 256.0 mg/kg/injection, schedule: Q01DX009 (ip), vehicle: other", "result": "105 % of control"}, {"measurement": "T/C", "setting": "dose: 300.0 mg/kg/injection, schedule: Q01DX009 (sc), vehicle: Klucel (hydroxypropylcellulose) (HPC)", "result": "120 % of control"}, {"measurement": "T/C", "setting": "dose: 300.0 mg/kg/injection, schedule: Q04DX003 (sc), vehicle: Klucel (hydroxypropylcellulose) (HPC)", "result": "160 % of control and 169 % of control and 177 % of control"}, {"measurement": "T/C", "setting": "dose: 400.0 mg/kg/injection, schedule: Q04DX003 (ip), vehicle: Klucel (hydroxypropylcellulose) (HPC)", "result": "206 % of control"}, {"measurement": "T/C", "setting": "dose: 400.0 mg/kg/injection, schedule: Q04DX003 (ip), vehicle: other", "result": "156 % of control and 207 % of control"}, {"measurement": "T/C", "setting": "dose: 400.0 mg/kg/injection, schedule: Q04DX003 (ip), vehicle: steriod suspending solution", "result": "155 % of control and 185 % of control and 205 % of control"}, {"measurement": "T/C", "setting": "dose: 500.0 mg/kg/injection, schedule: Q01DX009 (sc), vehicle: Klucel (hydroxypropylcellulose) (HPC)", "result": "100 % of control"}, {"measurement": "T/C", "setting": "dose: 512.0 mg/kg/injection, schedule: Q01DX009 (ip), vehicle: Klucel (hydroxypropylcellulose) (HPC)", "result": "107 % of control"}, {"measurement": "T/C", "setting": "dose: 800.0 mg/kg/injection, schedule: Q04DX003 (ip), vehicle: Klucel (hydroxypropylcellulose) (HPC)", "result": "112 % of control"}, {"measurement": "T/C", "setting": "dose: 800.0 mg/kg/injection, schedule: Q04DX003 (ip), vehicle: other", "result": "111 % of control and 118 % of control"}, {"measurement": "T/C", "setting": "dose: 800.0 mg/kg/injection, schedule: Q04DX003 (ip), vehicle: steriod suspending solution", "result": "100 % of control and 110 % of control and 120 % of control"}, {"measurement": "T/C", "setting": "dose: 800.0 mg/kg/injection, schedule: Q04DX003 (sc), vehicle: steriod suspending solution", "result": "110 % of control and 120 % of control"}, {"measurement": "T/C", "setting": "dose: 833.0 mg/kg/injection, schedule: Q04DX003 (oral), vehicle: Klucel (hydroxypropylcellulose) (HPC)", "result": "161 % of control and 168 % of control"}, {"measurement": "T/C", "setting": "dose: 833.0 mg/kg/injection, schedule: Q04DX003 (sc), vehicle: Klucel (hydroxypropylcellulose) (HPC)", "result": "107 % of control and 111 % of control"}, {"measurement": "T/C", "setting": "dose: 840.0 mg/kg/injection, schedule: Q04DX003 (oral), vehicle: Klucel (hydroxypropylcellulose) (HPC)", "result": "186 % of control and 188 % of control"}, {"measurement": "T/C", "setting": "dose: 1388.0 mg/kg/injection, schedule: Q04DX003 (sc), vehicle: Klucel (hydroxypropylcellulose) (HPC)", "result": "100 % of control"}]}
